We go through 83 molecules from PubChem BioAssay AID1959 (Broad Institute, 2009).

Calls of active or inactive are those of the source.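 Rule for the calls: active = growth-inhibition EC50 no more than tenfold above the top tested dose; inconclusive = flat fit between 30% and 70% inhibition, or unreliable fit; inactive = EC50 more than tenfold above the top tested dose.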 Where only a bound is given, the exact number is not on record here.

The test has as its system E. coli NEB5alpha growth, BacTiter-Glo luminescence, 4 h. As to the kind of experiment: Escherichia coli growth inhibition, dose response, counter-screen for MEX-5/POS-1 RNA-binding inhibitor project, luminescence, NEB5alpha (AID 1959).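 Note: pUC19-transformed ampicillin-resistant cells grown in LB with ampicillin.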
Regarding `COc1ccc(S(=O)(=O)C(C#N)c2nc3ccccc3nc2N2CCC(C)CC2)cc1` (stereo not drawn), the EC50 is > 11 µM (inactive).
Regarding `CCOC(=O)c1ccc2c(c1)C1C=CCC1C(C(=O)OCC)N2` (stereo not drawn), the EC50 is > 11 µM (inactive).
For the molecule `Cc1ccc[n+](-c2[nH]c(=O)sc2/C=N/NC(=O)c2ccccc2[O-])c1`, the EC50 was > 11 µM (inactive).
For `O=C(COC(=O)C1CCCC1)Nc1ncc(Cl)cc1Cl` the value was > 11 µM (inactive).
Turning to `COc1ccc(C2=CC3=CC(=O)C(C)(O)C(=O)C3=CO2)cc1` (stereo not drawn), the EC50 is > 11 µM (inactive).
For `Cc1[nH]nc(NNC(=O)c2ccccc2)c1[N+](=O)[O-]` the value was > 11 µM (inactive); for `COc1ccc2c(c1)c1nc3ccccc3nc1n2CCn1c(=O)oc2ccccc21`, > 11 µM (inactive); for `CSCC(C)N1CCC(N2CCC(C(=O)NCc3ccccn3)CC2)CC1` (stereo not drawn), > 11 µM (inactive).
For `C=CCn1c(O)c(/C=C/C=Nc2ccccc2)c(=O)[nH]c1=O` the value was > 11 µM (inactive).
For `Cc1ccc2sc(NNC(=O)c3cc(=O)c4ccccc4o3)nc2c1C` the value was > 11 µM (inactive); for `Cc1cc(C)cc(N2C(=O)NC(=O)/C(=C\c3cccn3-c3ccc(Cl)cc3)C2=O)c1`, > 11 µM (inactive).
As for `CCOCCCn1c(=NC(=O)c2cccs2)c(C#N)cc2c(=O)n3ccccc3nc21`, the EC50 was > 11 µM (inactive).
For the molecule `Cc1c(Cl)cccc1N1C(=O)NC(=O)/C(=C\c2cc(C)n(-c3cccc(C(=O)O)c3C)c2C)C1=O`, the EC50 is > 11 µM (inactive).
For `CN1C(=O)/C(=C/c2ccc(-c3ccccc3[N+](=O)[O-])o2)SC1=Nc1ccc(Cl)c(C(=O)O)c1` the value was > 11 µM (inactive); for `CCCCCCCCCCCCCCCCn1cc[n+](C)c1`, 9.41 µM; for `CC1(C)CCCN(C(=O)c2coc(=O)c(Br)c2)C1`, > 11 µM (inactive).
On to `CCOC(=O)c1c(-n2c(C)cc(/C=C3/C(=O)NC(=O)N(CC)C3=O)c2C)sc2c1CCCC2`, for which the EC50 is > 11 µM (inactive).
For `COC(=O)CNC(=O)C1Nc2ccccc2C2C=CCC12` (stereo not drawn) the value was > 11 µM (inactive); for `COc1cccc(/C=N/Nc2ncnc(N)c2[N+](=O)[O-])c1OC`, > 11 µM (inactive).
For `Cc1cccc(N=Nc2c(O)[nH]c3ccc(Br)cc23)c1` the value was > 11 µM (inactive).
For `Cc1oc(/N=C/c2ccc(O)cc2O)c(C#N)c1C` the value was > 11 µM (inactive); for `Cc1cc(O)c(Oc2cc(C)cc(O)c2O)c(O)c1`, > 11 µM (inactive); for `Cc1c(N=Cc2c(O)n(Cc3ccco3)c(=O)[nH]c2=O)c(=O)n(-c2ccccc2)n1C`, > 11 µM (inactive).
For `Cc1c(Cl)cccc1NC(=S)N1CCN(C(=O)C2CCCO2)CC1` (stereo not drawn), the EC50 was > 11 µM (inactive).
For `Cc1c(CN2CCCCC2)c(O)n(CCCO)c(=O)c1C#N` the value was > 11 µM (inactive); for `O=S(=O)(Nc1ccc(O)c2ccccc12)c1ccc(Br)cc1`, > 11 µM (inactive); for `Cc1cc(O)cc2c1C(=O)/C(=C/c1ccco1)O2`, > 11 µM (inactive).
As for `CN1CCCc2cc3c(C(F)(F)F)cc(=O)oc3nc21`, the EC50 is > 11 µM (inactive).
For `NC(=O)C1(N2CCCCC2)CCN(Cc2nc(-c3cccs3)no2)CC1` the value was > 11 µM (inactive).
For `COc1ccc(C(=O)/C=C/c2ccc(-c3ccccc3)cc2)cc1CSCC(=O)O` the value was > 11 µM (inactive); for `COc1cc(N=Cc2c(O)c3ccccc3oc2=O)c(OC)cc1Cl`, > 11 µM (inactive).
As for `Cc1c(/C=N/NC(=O)c2cc(=O)[nH]c(=O)[nH]2)c2ccccn2c1C(=O)c1ccccc1`, the EC50 is > 11 µM (inactive).
For `CC(=O)c1cc(NC(=O)c2cccc(C(F)(F)F)c2)c(=O)oc1/C=C/N(C)C` the value was > 11 µM (inactive); for `COc1ccc(C2C(C#N)=C(/N=C/N3CCN(C)CC3)OC3=C2C(=O)CC(C)(C)C3)cc1OC` (stereo not drawn), > 11 µM (inactive).
For `Oc1cccc(/C=N/N=C/c2cccc(O)c2O)c1O` the value was > 11 µM (inactive).
For `CC1(C)CC(=O)C2=C(C1)OC(N)=C(C#N)C2c1ccc2c(c1)OCO2` (stereo not drawn) the value was > 5.6 µM (inactive).
Turning to `O=C(c1ccc(Br)o1)N1CCN=C1SCc1cccc(F)c1`, the EC50 is > 11 µM (inactive).
For `CCOc1ccc(-c2nn(-c3ccccc3)cc2/C=C2\SC(=S)N(C3CCS(=O)(=O)C3)C2=O)cc1` (stereo not drawn) the value was > 11 µM (inactive).
For `NC(=O)CC(NC(=O)Cc1ccc(Cl)cc1)c1ccc(NC2CCCCCC2)c([N+](=O)[O-])c1` (stereo not drawn) the value was > 11 µM (inactive).
For `COc1ccccc1N1CC(C(=O)Nc2nnc(SCC(=O)NC(C)C)s2)CC1=O` (stereo not drawn) the value was > 11 µM (inactive).
As to `COc1ccc(N=Cc2c(O)n(Cc3ccccc3)c(=S)[nH]c2=O)c(OC)c1`, the EC50 was > 11 µM (inactive).
For `COCC1CCN(C(=O)CC2C(=O)NCCN2Cc2cccc(Oc3ccccc3)c2)CC1` (stereo not drawn) the value was > 11 µM (inactive); for `CC1CC=C2C(C#N)=C(N)C(C#N)(C#N)C(c3cccs3)C2C1` (stereo not drawn), > 11 µM (inactive); for `CCOC(=O)c1c(NC(=O)CC2Nc3ccccc3NC2=O)sc(C)c1C` (stereo not drawn), > 11 µM (inactive).
For `Cc1cc(/C=C2\C(=O)NC(=O)N(Cc3ccco3)C2=O)c(C)n1-c1ccc(C(=O)O)cc1` the value was > 11 µM (inactive); for `CC1(C)CC(=O)C2=C(C1)OC(N)=C(C#N)[C@@]21C(=O)N(CC(N)=O)c2ccccc21`, > 11 µM (inactive).
For `Cc1cccn2c(=O)c3cc(C(=O)NCCN4CCOCC4)c(=N)n(Cc4cccnc4)c3nc12` the value was > 11 µM (inactive); for `N=c1c(C(=O)NCc2ccc(F)cc2)cc2c(=O)n3ccccc3nc2n1Cc1cccnc1`, > 11 µM (inactive); for `CCOC(=O)c1nn(-c2ccc(C)cc2)c2nc(Nc3ccccc3)cc(=O)n12`, > 11 µM (inactive).
Turning to `O=c1[nH]c(CSc2ncccn2)nc2c1cnn2-c1ccccc1`, the EC50 was > 11 µM (inactive).
For `COc1ccc(N2C(=O)NC(=O)/C(=C\c3cn(CC(=O)N4CCOCC4)c4ccccc34)C2=O)c(OC)c1` the value was > 11 µM (inactive).
For `C[C@@H]1Cc2c(O)c(O)cc(O)c2C(=O)O1` the value was > 11 µM (inactive).
For `N#CC1=C(N)OC2=C(C(=O)CCC2)C1c1ccccc1` (stereo not drawn) the value was > 11 µM (inactive); for `CC(=O)c1ccc(C(=O)Nc2sc3c(c2C(N)=O)CCN(Cc2ccccc2)C3)cc1`, > 11 µM (inactive).
Take `CCOC(=O)CSc1nc2ccc(Nc3nc(N4CCOCC4)nc(N4CCOCC4)n3)cc2s1`: the EC50 was > 11 µM (inactive).
As for `CCN(CC)c1ccc2cc(NC(=O)CCC(=O)O)c(=O)oc2c1`, the EC50 is > 11 µM (inactive).
As to `CC1(OC(=O)CCc2ccccc2)C(=O)C=C2C=C(c3ccsc3)OC=C2C1=O` (stereo not drawn), the EC50 is > 11 µM (inactive).
For `CCOC(=O)c1cc2c(=O)n3ccccc3nc2n(C(C)C)c1=NC(=O)c1ccncc1` the value was > 11 µM (inactive); for `COc1ccc2c(c1)S/C(=C\C(=O)c1ccncc1)N2C`, > 11 µM (inactive).
As to `CSc1nnc(SCc2nc3sc(C(=O)O)c(C)c3c(=O)[nH]2)s1`, the EC50 was > 11 µM (inactive).
Turning to `C=CCc1cccc(/C=N/n2cnnc2)c1O`, the EC50 was > 11 µM (inactive).
For `Cc1ccccc1NC(=O)CN1C(=O)S/C(=C\c2cccn2-c2cccc(C(=O)O)c2)C1=O` the value was > 11 µM (inactive); for `C=CCOc1cccc(C2C(C(=O)c3cc4ccccc4o3)=C(O)C(=O)N2c2cc(C)on2)c1` (stereo not drawn), > 11 µM (inactive); for `CC1(OC(=O)c2cnc3ccccc3n2)C(=O)C=C2C=C(c3ccc(C#N)cc3)OC=C2C1=O` (stereo not drawn), > 11 µM (inactive).
For `Cc1ccc([N+](=O)[O-])cc1S(=O)(=O)Nc1ccc(O)c(Sc2ncn[nH]2)c1` the value was > 11 µM (inactive); for `CCNC(=O)c1cc2c(=O)n3cccc(C)c3nc2n(CCc2ccccc2)c1=N`, > 11 µM (inactive).
For `O=C1CNC(=S)N1CCc1ccc(O)c(O)c1` the value was > 11 µM (inactive).
Turning to `Cc1ccc(N2C(=O)c3cccc4c(N5CCN(C)CC5)ccc(c34)C2=O)c2cccnc12`, the EC50 was > 11 µM (inactive).
For `Cn1c(O)c(/C=C2\C=c3ccccc3=NC2=O)c(=O)n(C)c1=O` the value was > 11 µM (inactive).
For `Brc1ccc(C2=CC(c3ccco3)n3ncnc3N2)cc1` (stereo not drawn) the value was > 11 µM (inactive); for `Cc1ccc2nc3c(cc(C(=O)NCC4CCCO4)c(=N)n3C3CCCC3)c(=O)n2c1` (stereo not drawn), > 11 µM (inactive); for `Cc1ccc(/C=C/C(=O)c2ccc(N3CCOCC3)cc2)s1`, > 11 µM (inactive).
As to `Cc1ccc(NC(=O)COc2ccc(/C=C3/SC(=Nc4ccccc4)N(Cc4cccnc4)C3=O)cc2)cc1`, the EC50 was > 11 µM (inactive).
For `O=C(NN1C(=O)c2ccccc2NC1c1ccccn1)c1ccc(Br)cc1` (stereo not drawn) the value was > 11 µM (inactive).
`CCc1cc[n+](-c2nc([O-])sc2C=O)cc1`: the EC50 is > 11 µM (inactive).
For `COc1cc(C2C(C#N)=C(N)OC3=C2C(=O)CC(C)(C)C3)cc2c1OCO2` (stereo not drawn) the value was > 11 µM (inactive).
For `COc1cc(-c2cc(=O)c3c(O)c(OC)c(OC)c(O)c3o2)ccc1O` the value was > 11 µM (inactive); for `CC(C)c1nnc(N2C(=O)C(O)=C(C(=O)c3cccs3)C2c2ccccc2)s1` (stereo not drawn), > 11 µM (inactive).
Consider `CCOc1ccc(N/C(=C(/C(Cl)=C(Cl)Cl)[N+](=O)[O-])n2cncn2)cc1`, for which the EC50 is > 11 µM (inactive).
Regarding `O=C(N/N=C\c1cc([N+](=O)[O-])ccc1N1CCCC1)c1ccccn1`, the EC50 was > 11 µM (inactive).
For `C/C(CCc1oc2ccc(Cl)cc2c1-c1ccc(C)o1)=N\O` the value was > 11 µM (inactive); for `COc1ccc(Nc2nc3ccccc3nc2NS(=O)(=O)c2cccs2)cc1`, > 11 µM (inactive); for `Cc1cc(C)cc(N2C(=O)NC(=O)/C(=C\c3cc(C)n(C)c3C)C2=O)c1`, > 11 µM (inactive).

Broadly, the EC50 is the concentration at which the effect is half-maximal.
